The source of these data is patent US20240252693A1, “FOLATE RECEPTOR-TARGETED RADIOTHERAPEUTIC AGENTS AND THEIR USE” (Novartis AG, priority 2021, published 2024).

Where “and” joins values, the source holds several entries; their conditions need not be identical. Equal entries are not always repeated.

Data set [1] concerns the target T1, folate receptors on FR-positive KB cells (Homo sapiens, UniProt P15328).
T1 construct: endogenous in cells; host or cells: KB cells
In words: Binding affinity assay: direct binding of 177Lu-labelled compounds to FR-positive KB cells. The note with it: 177Lu-labelled compound, 1 h 37 °C. As to the method: FR-positive KB cells and FR-negative A549 cells were seeded in 24-well Falcon plates and allowed to form adherent monolayers (>90% confluent) overnight in FFRPMI/HIFCS. Spent incubation medium was replaced with FFRPMI supplemented with 10% HIFCS containing increasing concentrations (0.78 to 100 nmol/L) of [^177Lu]-Compound 34, [^177Lu]-Compound 37, or [^177Lu]-(non-targeted control) in the absence and presence of 10 μM FA. Cells were incubated for 1 h at 37° C. and then rinsed three times with 0.5 mL PBS. Five hundred microliters of 1% NaOH in PBS were added to each well; after 5 min, cell lysates were collected, transferred to individual tubes, and then counted for radioactivity on a gamma counter. Counts per minute (CPM) values were measured in all samples and plotted against concentration of [^177Lu]-Compound 34, [1^77Lu]-Compound 37, or [^177Lu]-(non-targeted control) using GraphPad Prism 8 program. Dissociation constants (Kd) was calculated using a GraphPad's nonlinear regression one site binding method.

A further data set concerns MDA-MB-231 tumors. In words: In vivo anti-tumor activity in mice bearing MDA-MB-231 tumors. The note with it: 300 nmol/3.7 GBq/kg, female nu nu mice, n=5. As to the method: (§1) Four- to eight-week-old female nu nu mice or NSG mice (Harlan Sprague-Dawley, Inc.) were maintained on a standard 12-h light-dark cycle and fed ad libitum with folate deficient purified rodent diet (TestDiet #AIN-93G). FR-positive (human breast adenocarcinoma) or IGROV (human ovarian adenocarcinoma) or KB (human cervical adenocarcinoma) tumor cells were inoculated subcutaneously at the right flank of each mouse. Mice were dosed with [^177Lu]-Compound 34, [^177Lu]-Compound 37, or [^225Ac]-Compound 5 through the lateral tail vein under sterile conditions in a volume of 100 μL/10 g of phosphate-buffered saline (PBS). Growth of each s.c. tumor was followed by measuring the tumor two times per week. Tumors were measured in two perpendicular directions using Vernier calipers, and their volumes were calculated as 0.5×L×W^2, where L=measurement of longest axis in mm and W=measurement of axis perpendicular to L in mm. A stable disease (SD) was defined as volume reduction of <50% and increase of <50% in two weeks. A partial response (PR) was defined as volume regression >50% but with measurable tumor (>2 mm^3) remaining at all times. Complete response (CR) was defined as a disappearance of measurable tumor mass (<2 mm^3) at some point within the study. Cures were defined as CRs without tumor regrowth within the study time frame. As a general measure of gross toxicity, changes in body weights were determined on the same schedule as tumor volume measurements.

Data set [2] can be described thus: Body weight as measure of gross toxicity in the MDA-MB-231 anti-tumor study. It counts as in vivo. The note with it: 300 nmol/3.7 GBq/kg, female nu nu mice bearing MDA-MB-231 tumors.
Excerpt: as §1, with “Mice were dosed with [^177Lu]-Compound 34, [^177Lu]-Compound 37, or [^225Ac]-Compound 5 through the lateral tail vein under sterile conditions in a volume of 100 μL/10 g of phosphate-buffered saline (PBS).” left out

Data set [3] deals with T2, folate receptor (FR) on KB cells (Homo sapiens, UniProt P15328).
T2 construct: endogenous in cells; host or cells: KB cells
In words: Relative affinity assay: displacement of [3H]folic acid from FR-positive KB cells. It counts as binding. The note with it: inverse molar ratio to displace 50% of 100 nmol/L [3H]FA, 1 h 37 °C, folic acid set to 1. As to the method:
FR-positive KB cells were seeded in 24-well Falcon plates and allowed to form adherent monolayers (>90% confluent) overnight in FDRPMI/10% FCS media. Spent incubation medium was replaced with FFRPMI supplemented with 10% HIFCS and containing 100 nmol/L of [^3H]FA in the absence and presence of increasing concentrations of unlabeled folic acid (FA), Compound 34, Compound 37, or non-targeted control (Table 14). Cells were incubated for 1 h at 37° C. and then rinsed three times with 0.5 mL PBS (phosphate-buffered saline). Five hundred microliters of 1% SDS (sodium dodecyl sulfate) in PBS were added to each well; after 5 min, cell lysates were collected, transferred to individual vials containing 5 mL of scintillation cocktail, and then counted for radioactivity. Cells exposed to only the [^3H]FA in FFRPMI (no competitor) were designated as negative controls, whereas cells exposed to the [^3H]FA plus 1 mmol/L unlabeled FA served as positive controls. Disintegrations per minute (DPM) measured in the latter samples (representing nonspecific binding of label) were subtracted from the DPM values from all samples. Relative affinities were defined as the inverse molar ratio of compound required to displace 50% of [^3H]FA bound to FR on KB cells, and the relative affinity of FA for the FR was set to 1.
(Loss of bound radioactivity is the signal in a displacement assay; it reports binding, not function.)

For data set [4], the system named is FR-positive IGROV-1 tumor. In words: In vivo biodistribution in Athymic Nude-Foxn1nu mice bearing IGROV-1 tumors. The note with it: 177Lu chelate, 600 nmol/kg, 24 h post injection, mean ± SD. As to the method: Six week old female Athymic Nude-Foxn1nu mice (Envigo) were maintained on a standard 12-h light-dark cycle and fed ad libitum with folate deficient purified rodent dies (SSniff #E15321-147) for the duration of the experiment. FR-positive IGROV-1 tumor cells were inoculated in the subcutis dorsal medial area of mice. The biodistribution studies were […]. Mice were divided into groups of four, and freshly prepared test articles were injected through the lateral tail vein in a volume of 100 μL/10 g of PBS. Four h to 24 h post radioactive agent dose administration, mice were euthanized and organs (blood, bone, bowel (large and small), brain, heart, kidneys, liver, lungs, salivary glands, skeletal muscle, skin, spleen, stomach and tumor) were collected, weight and placed inside counting vials. Each tissue sample was counted for the activities of radioelement using a gamma-counter. Samples of the injective were used as decay correction standards. Final bar graph is expressed as % injected dose per gram of tissue FIG. 9.

The subject of another data set is FR-positive M109 tumor. In words: In vivo biodistribution in mice bearing M109 tumors. The settings on record: 177Lu chelate. The text has this: Four- to eight-week-old female nu/nu mice or NSG mice (Harlan Sprague-Dawley, Inc.) were maintained on a standard 12-h light-dark cycle and fed ad libitum with Folate deficient purified rodent diet (TestDiet #AIN-93G) for the duration of the experiment. FR-positive M109 or FR-negative HT29 tumor cells were inoculated in the subcutis dorsal medial area of mice. The biodistribution studies were typically performed when tumors were approximately 400-800 mm^3 in volume. Mice were divided into groups of three, and freshly prepared test articles and competitors were injected through the lateral tail vein in a volume of 100 μL/10 g of PBS. Four h to six days post radioactive-agent dose administration, mice were euthanized and organs (blood, heart, lungs, liver, spleen, and kidneys, intestine, stomach, muscle, brain and tumor) were collected, weighed and placed inside counting vials. Each tissue sample was counted for the activities of radioelement using a gamma-counter. Samples of the injectate were used as decay correction standards. Final bar graphs are expressed as % injected dose per gram of tissue or tumor to kidney ratio, or % tumor to (kidneys+liver+spleen) ratio.

For the next data set, the system named is KB tumor. In words: In vivo biodistribution in mice bearing KB tumors. The settings on record: 225Ac chelate, 30 nmol/kg.

T2 sequence (P15328 25-234): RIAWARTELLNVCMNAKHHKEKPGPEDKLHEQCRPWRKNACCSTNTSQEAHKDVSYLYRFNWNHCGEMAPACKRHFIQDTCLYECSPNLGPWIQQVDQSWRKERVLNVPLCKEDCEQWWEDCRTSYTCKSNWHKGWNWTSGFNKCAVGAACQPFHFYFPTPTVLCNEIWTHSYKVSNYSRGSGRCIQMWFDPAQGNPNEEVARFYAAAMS
T1 sequence (P15328 25-234): as above

The Kd is the equilibrium constant for the complex coming apart. Low readings indicate higher affinity, high ones lower affinity. Regarding `Nc1nc2ncc(CNc3ccc(C(=O)N[C@@H](CCCCNC(=O)COc4ccc(C[C@H](NC(=O)CNC(=O)CN5CCN(CC(=O)O)CCN(CC(=O)O)CCN(CC(=O)O)CC5)C(=O)O)cc4)C(=O)O)cc3)nc2c(=O)[nH]1` [[^177Lu]-Compound 37, metal not drawn], in data set [1], the affinity, expressed as Kd, was 8.99 nM. Also, in the data set with MDA-MB-231 tumors, the “complete response (CR)” value is reported as “one” and the “partial responses (PRs)” value is “four”. Further, in data set [2], the “average weight of mice (tolerability)” value is “did not lose any significant weight”.
`Nc1nc2ncc(CNc3ccc(C(=O)N[C@@H](CCCCNC(=O)COc4ccc(C[C@H](NC(=O)CNC(=O)CN5CCN(CC(=O)O)CCN(CC(=O)O)CCN(CC(=O)O)CC5)C(=O)O)cc4)C(=O)O)cc3)nc2c(=O)[nH]1` [Compound 37, 2,2′,2″-(10-(2-((2-(((S)-2-(4-(2-(((S)-5-(4-(((2-amino-4-oxo-3,4-dihydropteridin-6-yl)methyl)amino)benzamido)-5-carboxypentyl)amino)-2-oxoethoxy)phenyl)-1-carboxyethyl)amino)-2-oxoethyl)amino)-2-oxoethyl)-1,4,7,10-tetraazacyclododecane-1,4,7-triyl)triacetic acid]: the “Relative Binding Affinity” value in data set [3] was determined as 1.53. Further, in data set [4], the T/Kid is listed as 0.15 +/− 0.03, the T/Liv is reported as 1.37 +/− 0.37 and the T/spl is given as 0.49 +/− 0.17. For the same compound, in the data set on FR-positive M109 tumor (300 nmol/kg), the T/Kid is reported as 0.46 +/− 0.14, the T/Liv was 13.2 +/− 4.5, the T/spl is 61.9 +/− 14.4 and the “T^2/kid” value is on record as 1.51 +/− 0.57.
In the case of `O=C(O)CN1CCN(CC(=O)O)CCN([C@@H](CCC(=O)NC[C@H](NC(=O)c2ccc(NCc3ccc4ccccc4c3)cc2)C(=O)O)C(=O)O)CCN(CC(=O)O)CC1` [(non- targeted control), reference compound], the “Relative Binding Affinity” value in data set [3] was “Non- binder”. Besides, in data set [1], the “Direct Binding (Kd, nM)” value is “Non- binder”.
Regarding `Nc1nc2ncc(CNc3ccc(C(=O)N[C@@H](CCCCNC(=O)C[C@H](NC(=O)[C@H](Cc4ccc5ccccc5c4)NC(=O)CNC(=O)CN4CCN(CC(=O)O)CCN(CC(=O)O)CCN(CC(=O)O)CC4)C(=O)O)C(=O)O)cc3)nc2c(=O)[nH]1` [Compound 34, 2,2′,2″-(10-((3S,11S,14S)-1-(4-(((2-amino-4-oxo-3,4-dihydropteridin-6-yl)methyl)amino)phenyl)-3,11-dicarboxy-14-(naphthalen-2-ylmethyl)-1,9,13,16,19-pentaoxo-2,8,12,15,18-pentaazaicosan-20-yl)-1,4,7,10-tetraazacyclododecane-1,4,7-triyl)triacetic acid], the “Relative Binding Affinity” value in data set [3] worked out at 2.21. In addition, in data set [4], the T/Kid was 0.29 +/− 0.05, the T/Liv is 1.53 +/− 0.57 and the T/spl is 0.49 +/− 0.07. For the same compound, in the data set on FR-positive M109 tumor (300 nmol/kg), the T/Kid is reported as 0.55 +/− 0.1, the T/Liv is listed as 25.3 +/− 6.6, the T/spl is reported as 98.3 +/− 25.1 and the “T^2/kid” value was 1.7 +/− 0.9. Moreover, in the data set on FR-positive M109 tumor (600 nmol/kg), the T/Kid is reported as 0.80 +/− 0.18, the T/Liv is 29.1 +/− 5.4, the T/spl is 92.8 +/− 5.4 and the “T^2/kid” value is given as 1.97 +/− 0.7.
With `Nc1nc2ncc(CNc3ccc(C(=O)N[C@@H](CCCCNC(=O)[C@H](Cc4ccc5ccccc5c4)NC(=O)[C@H]4CC[C@H](CNC(=O)CN5CCN(CC(=O)O)CCN(CC(=O)O)CCN(CC(=O)O)CC5)CC4)C(=O)O)cc3)nc2c(=O)[nH]1` [Compound 23], in the data set with FR-positive M109 tumor (300 nmol/kg), the T/Kid is given as 0.37 +/− 0.11, the T/Liv is 25.8 +/− 2.4, the T/spl is reported as 108 +/− 12.7 and the “T^2/kid” value is on record as 1.47 +/− 0.66. Besides, in the data set on KB tumor, the T/Kid is 0.08 +/− 0.03, the T/Liv is 1.8 +/− 0.7 and the T/spl is listed as 10.1 +/− 4.7.
For `Nc1nc2ncc(CNc3ccc(C(=O)N[C@@H](CNC(=O)CN4CCN(CC(=O)O)CCN(CC(=O)O)CCN(CC(=O)O)CC4)C(=O)O)cc3)nc2c(=O)[nH]1` [Compound 3], in the data set on FR-positive M109 tumor (100 nmol/kg), the T/Kid is reported as 0.30 +/− 0.04, the T/Liv is 0.93 +/− 0.15, the T/spl is given as 10.6 +/− 1.8 and the “T^2/kid” value is 1.6 +/− 0.4. Moreover, in the data set on KB tumor, the T/Kid was 0.04 +/− 0.01, the T/Liv was 0.5 +/− 0.3 and the T/spl was 6.8 +/− 2.9.
Consider `Nc1nc2ncc(CNc3ccc(C(=O)N[C@@H](CNC(=O)CCC(C(=O)O)N4CCN(CC(=O)O)CCN(CC(=O)O)CCN(CC(=O)O)CC4)C(=O)O)cc3)nc2c(=O)[nH]1` (stereo partly shown) [Compound 5], for which, in the data set on FR-positive M109 tumor (100 nmol/kg), the T/Kid is 0.22 +/− 0.08 and 0.16 +/− 0.01 and 0.25 +/− 0.07; the T/spl was 25.3 +/− 11.4 and 14.6 +/− 3.0 and 24.4 +/− 8.8; the “T^2/kid” value was 1.6 +/− 1.0 and 1.1 +/− 0.3 and 2.0 +/− 1.2. In the data set with KB tumor, the T/Kid is reported as 0.09 +/− 0.02, the T/Liv is on record as 3.5 +/− 1.9 and the T/spl was 19.9 +/− 10.9.
